Where two headings read alike, the source gives them in different places.
Key:
[1] = tested on: MCF-7 cells; assay type: cell-based, human; conditions: 1 μM daunorubicin, 1 hour retention phase
Method: (§1) All incubations were carried out in the absence or presence of FTC (1 or 5 μM).

[2] = tested on: MCF-7/BCRP cells; assay type: cell-based, human
Method: as §1

[3] = tested on: MCF 7/mtxR cells; assay type: cell-based, human
Method: (§2) Cell survival was estimated after 3 days using the SRB assay. Cell survival was determined by the SRB assay and EC50 values were determined from toxicity curves. The dose modifying factor (DMF) is the ratio of EC50 values obtained in the absence and presence of reversal agent. Maximum DMF values (shown in parentheses) is the ratio of EC50 values of resistant and sensitive cells in the absence of the reversal agent. This value is obtained when resistance is reversed completely, and is the equivalent of the relative resistance.
(§3) In order to determine the utility of FTC as a reversal agent in other multidrug resistant cell lines, FTC was tested in two breast cancer cell lines which show a multidrug resistant phenotype with no overexpression of P-gp or MRP.

[4] = tested on: MCF 7/AdVp cells; assay type: cell-based, human
Method: as §2, §3

[5] = tested on: S1-M1-3.2 cells; assay: Dose modifying factor of FTC (SRB, EC50 ratio); assay type: cell-based, human; conditions: S1-M1 versus S1, no reversal agent
Method: as §2

[6] = tested on: MCF-7/BCRP cells; assay: Dose modifying factor of FTC in BCRP-transfected cells; assay type: cell-based, human; conditions: MCF-7/BCRP versus MCF-7, no reversal agent
Method: Cell survival was estimated after 3 days using the SRB assay, and EC50 values were determined from cytotoxicity curves.

[7] = tested on: HL-60/AR cells; assay type: cell-based
Method: as §2

[8] = tested on: S1-M1-3.2 cells; assay: Cytotoxicity of antitumor agents, 3-day SRB assay, mitoxantrone-selected cells; assay type: cell-based, human; conditions: relative to S1; 2-7 independent experiments
Method: Cells were cultured for three days in the presence of the antitumor agent (triplicate points per dose). Following a 3-day growth period, cells were fixed in 10% trichloroacetic acid (TCA) for 1 hour, washed extensively with water, and cell-associated protein was stained using 0.1% sulforhodamine B (SRB), a protein binding reagent [Rubinstein et al., Journal of the National Cancer Institute 82, 1113-1118 (1990) and Skehan et al., Journal of the National Cancer Institute 82, 1107-1112 (1990)]. Excess reagent was removed by washing plates in 5% acetic acid, the dye was solubilized in 10 mM Tris base, and absorbance determined in a UV Max spectrophotometer (Molecular Devices, Menlo Park, Calif.) at 540 nm. Cell survival was estimated relative to control wells (no drugs). EC50 values (μM) were estimated from cytotoxicity curves. For S1, the values shown [mean ±SE (number of independent observations)] are taken from Zhang et al., “P-Glycoprotein Mediates Profound Resistance to Bisantrene,” Oncol. Res., 6:291-301, 1994. Values for S1-M1-3.2 are compiled from 2-7 independent experiments.

[9] = tested on: S1-B1-20 cells
Method: (§7) Cell-associated radioactivity was measured at the indicated times. Values are mean percentage of drug remaining (triplicate determinations) ± standard deviation.
(§8) After 1 hour, cells were prepared for analysis by scintillation counting. Values shown are mean percentage of drug remaining (triplicate determinations) ± standard deviation.

[10] = tested on: S1 cells; assay: Drug accumulation analysis with [14C] drug; assay type: cell-based, human; conditions: [14C] drug, 90 minutes at 37° C.
Method: (§4) To determine the mechanism of resistance, drug resistant and sensitive cells were incubated with radioactive analogues of antitumor agents and cell-associated radioactivity was measured by scintillation counting. Alternatively, surrogates of chemotherapeutic drugs may be used. The surrogate has no antitumor activity itself but interacts with the cancer cell proteins such as P-gp or MRP in a similar manner as an anticancer drug. The surrogate chemotherapeutic drug would have a property such as fluorescence which is useful for determining the drug resistance mechanisms such as efflux.
(§5) Cells were plated in 60 mm dishes (1×10^6 cells per dish) or in 24 well clusters (2 ×10^5 cells per well) and allowed to grow for 1-2 days. […] Drugs used were [^14C]-mitoxantrone (Amersham, 1 or 5 μM; specific activity 66 mCi/mmol) or [^14C]-doxorubicin (Amersham, 0.5 or 3 μM; specific activity 50-62 mCi/mmol ). […] Unbound drug was removed by washing twice in ice-cold phosphate buffered saline (PBS), cells were solubilized in 2 N NaOH at 37° C. for 1-2 hours, and analyzed by scintillation counting. Results were normalized to cell protein content measured by a Lowry assay.
(§6) The cells were then washed, solubilized, and counted in a scintillation counter. Values are mean disintegration per minute per μg protein of triplicate determinations ± standard deviation.

[11] = tested on: S1-M1-3.2 cells; assay: Drug accumulation analysis with [14C] drug; assay type: cell-based, human; conditions: for Drug Accumulation, no FTC: S1-M1-3.2 cells, [14C] drug, 90 minutes at 37° C.; for drug accumulated compared with the parental cells: S1-M1-3.2 versus S1, no FTC
Method: as §4, §5, §6

[12] = tested on: S1-B1-20 cells; assay: Drug accumulation analysis with [14C] drug; assay type: cell-based, human; conditions: [14C] drug, 90 minutes at 37° C.
Method: as §4, §5, §6

[13] = tested on: S1 cells
Method: as §7, §8

[14] = tested on: S1-M1-3.2 cells
Method: as §7, §8

[15] = tested on: MCF/MX cells; assay: Resistance of MCF/MX cells to camptothecins; assay type: cell-based
[16] = 1 hour efflux with energy depletor, growth medium = 100

## COc1cccc2c1C(=O)c1c(O)c3c(c(O)c1C2=O)C[C@@](O)(C(C)=O)C[C@@H]3O[C@H]1C[C@H](N)[C@H](O)[C@H](C)O1 [daunorubicin, reference compound]
[1]
  daunorubicin retention, Channel Number (fluorescence units), No FTC: 15.2 ± 0.39 fluorescence units
[2]
  daunorubicin retention, Channel Number (fluorescence units), No FTC: 6.8 ± 0.33 fluorescence units

## CC(=O)O[C@H]1C(=O)[C@@]2(C)[C@H]([C@H](OC(=O)c3ccccc3)[C@]3(O)C[C@H](OC(=O)[C@H](O)[C@@H](NC(=O)c4ccccc4)c4ccccc4)C(C)=C1C3(C)C)[C@]1(OC(C)=O)CO[C@@H]1C[C@@H]2O [paclitaxel, reference compound]
[3]
  Maximum DMF (in parentheses; relative resistance to the antitumor agent): 1.1 (2.0)
[4]
  Maximum DMF (in parentheses; relative resistance to the antitumor agent): 0.7 (10.7)
[5]
  Maximum DMF (in parentheses; relative resistance to the antitumor agent): 6
[6]
  Maximum DMF (in parentheses; relative resistance to the antitumor agent): 2.7
[7]
  Maximum DMF (in parentheses; relative resistance to the antitumor agent): 2.6 (5.1)
[8]
  S1-M1-3.2 (relative resistance): 6

## O=C1c2c(O)ccc(O)c2C(=O)c2c(NCCNCCO)ccc(NCCNCCO)c21 [mitoxantrone]
[9]; 0 h
  % mitoxantrone remaining over time (hours): 100 ± 5%
[9]; 0.5 h
  % mitoxantrone remaining over time (hours): 58 ± 4%
[9]; 1 h
  % mitoxantrone remaining over time (hours): 45 ± 10%
[9]; 2 h
  % mitoxantrone remaining over time (hours): 41 ± 3%
[9]; 4 h
  % mitoxantrone remaining over time (hours): 39 ± 3%
[3]
  Maximum DMF (in parentheses; relative resistance to the antitumor agent): 114 (2090)
[5]
  Maximum DMF (in parentheses; relative resistance to the antitumor agent): 1435
[6]
  Maximum DMF (in parentheses; relative resistance to the antitumor agent): 35.1
[7]
  Maximum DMF (in parentheses; relative resistance to the antitumor agent): 3.3 (53)
[10]
  Drug Accumulation, no FTC: 2430 ± 252 DPM/μg protein
[11]
  Drug Accumulation, no FTC: 996 ± 57 DPM/μg protein
  drug accumulated compared with the parental cells: 41%
[12]
  Drug Accumulation, no FTC: 1086 ± 100 DPM/μg protein
[13]; 0 h
  % mitoxantrone remaining over time (hours): 100 ± 6%
[13]; 0.5 h
  % mitoxantrone remaining over time (hours): 99 ± 17%
[13]; 1 h
  % mitoxantrone remaining over time (hours): 101 ± 3%
[13]; 2 h
  % mitoxantrone remaining over time (hours): 100 ± 11%
[13]; 4 h
  % mitoxantrone remaining over time (hours): 95 ± 13%
[8]
  S1-M1-3.2 (relative resistance): 1435
[14]; 0 h
  % mitoxantrone remaining over time (hours): 100 ± 2%
[14]; 0.5 h
  % mitoxantrone remaining over time (hours): 51 ± 6%
[14]; 1 h
  % mitoxantrone remaining over time (hours): 44 ± 1%
[14]; 2 h
  % mitoxantrone remaining over time (hours): 45 ± 3%
[14]; 4 h
  % mitoxantrone remaining over time (hours): 31 ± 2%

## CC[C@@]1(O)C(=O)OCc2c1cc1n(c2=O)Cc2cc3c(CN(C)C)c(O)ccc3nc2-1 [topotecan, reference compound]
[5]
  Maximum DMF (in parentheses; relative resistance to the antitumor agent): 41
[6]
  Maximum DMF (in parentheses; relative resistance to the antitumor agent): 3.3
[8]
  S1-M1-3.2 (relative resistance): 41

## CC[C@]1(O)C[C@@H]2CN(CCc3c([nH]c4ccccc34)[C@@](C(=O)OC)(c3cc4c(cc3OC)N(C)[C@H]3[C@@](O)(C(=O)OC)[C@H](OC(C)=O)[C@]5(CC)C=CCN6CC[C@]43[C@@H]65)C2)C1 [vinblastine]
[8]
  S1-M1-3.2 (relative resistance): 3

## COc1cc([C@@H]2c3cc4c(cc3[C@@H](O[C@@H]3O[C@@H]5CO[C@@H](C)O[C@H]5[C@H](O)[C@H]3O)[C@H]3COC(=O)[C@H]23)OCO4)cc(OC)c1O [etoposide]
[8]
  S1-M1-3.2 (relative resistance): 6

## [N-]=[N+]=[N-].[Na+] [PBS + sodium azide, sodium azide]
[9]; [16]
  % mitoxantrone remaining in cell line: 217 ± 6%
[13]; [16]
  % mitoxantrone remaining in cell line: 137 ± 14%
[14]; [16]
  % mitoxantrone remaining in cell line: 285 ± 43%

## CC[C@@]1(O)C(=O)OCc2c1cc1n(c2=O)Cc2cc3ccccc3nc2-1 [camptothecin]
[15]
  resistance of MCF/MX cells: 3.2 fold
[8]
  S1-M1-3.2 (relative resistance): 2

## CC[C@@]1(O)C(=O)OCc2c1cc1n(c2=O)Cc2cc3c(N)cccc3nc2-1 [9-amino camptothecin]
[15]
  resistance of MCF/MX cells: 120 fold

## COc1cccc2c1C(=O)c1c(O)c3c(c(O)c1C2=O)C[C@@](O)(C(=O)CO)C[C@@H]3O[C@H]1C[C@H](N)[C@H](O)[C@H](C)O1 [doxorubicin, reference compound]
[2]; MCF-7/BCRP, 1 μM [14C]-doxorubicin, 1 hour retention phase
  [^14C] doxorubicin retention, No FTC: 5.4 ± 0.48 DPM per microgram protein
[10]
  Drug Accumulation, no FTC: 114 ± 11 DPM/μg protein
[11]
  Drug Accumulation, no FTC: 19 ± 3 DPM/μg protein
  drug accumulated compared with the parental cells: 17%
[12]
  Drug Accumulation, no FTC: 23 ± 1 DPM/μg protein
